Data as given in ChEMBL document CHEMBL5244281, “Tackling multidrug-resistant Staphylococcus aureus by natural products and their analogues acting as NorA efflux pump inhibitors” (Bioorg Med Chem, 2023).
Values after ≈ are worked out from the molar mass of the structure shown.

Tests used:
Staphylococcus aureus [1] = assay: Antibacterial activity against norfloxacin resistant Staphylococcus aureus 1199 assessed as bacterial growth inhibition incubated for 24 hrs by resazurin based broth microdilution method; format: functional
Staphylococcus aureus [2] = assay: Antibacterial activity against norfloxacin resistant Staphylococcus aureus 1199B overexpressing NorA assessed as bacterial growth inhibition incubated for 24 hrs by resazurin based broth microdilution method; format: functional
Staphylococcus aureus [3] = assay: Antibacterial activity against Staphylococcus aureus K2068 overexpressing mepA gene assessed as bacterial growth inhibition incubated for 24 hrs by resazurin based microdilution assay; format: functional
Staphylococcus aureus [4] = assay: Antibacterial activity against Staphylococcus aureus K4414 overexpressing qacA/B gene assessed as bacterial growth inhibition incubated for 24 hrs by resazurin based microdilution assay; format: functional
Staphylococcus aureus [5] = assay: Antibacterial activity against Staphylococcus aureus IS-58 overexpressing TetK efflux protein assessed as bacterial growth inhibition incubated for 24 hrs by resazurin based microdilution assay; format: functional
Staphylococcus aureus [6] = assay: Antibacterial activity against Staphylococcus aureus 1199B overexpressing NorA efflux protein assessed as bacterial growth inhibition incubated for 24 hrs by resazurin based microdilution assay; format: functional
Staphylococcus aureus [7] = assay: Antibacterial activity against wild type Staphylococcus aureus ATCC 25923 assessed as bacterial growth inhibition incubated for 24 hrs by resazurin based microdilution assay; format: functional
Staphylococcus aureus [8] = assay: Antibacterial activity against Staphylococcus aureus K4100 overexpressing qacC gene assessed as bacterial growth inhibition incubated for 24 hrs by resazurin based microdilution assay; format: functional
Staphylococcus aureus [9] = assay: Antibacterial activity against Staphylococcus aureus RN4220 overexpressing […] efflux protein assessed as bacterial growth inhibition incubated for 24 hrs by resazurin based microdilution assay; format: functional
Staphylococcus aureus [10] = assay: Synergistic antimicrobial activity against Staphylococcus aureus 1199B overexpressing NorA efflux pump assessed as fractional inhibitory concentration index incubated for 24 hrs by checkerboard method; format: functional
Staphylococcus aureus [11] = assay: Synergistic antimicrobial activity against Staphylococcus aureus 1199B overexpressing NorA efflux pump assessed as reduction in norfloxacin MIC incubated for 24 hrs by MTT colorimetric assay (Rvb= […]); format: functional
Staphylococcus aureus [12] = assay: Antibacterial activity against Staphylococcus aureus 1199B expressing NorA efflux protein assessed as bacterial growth inhibition incubated for 24 hrs by resazurin based microdilution assay; format: functional
[13] = target: T1, Quinolone resistance protein NorA (Staphylococcus aureus) (UniProt P0A0J7); assay: Inhibition of NorA efflux pump in Staphylococcus aureus 1199 assessed as EtBr MIC at 1/8 times of MIC using EtBr as substrate incubated for 24 hrs by resazurin based assay (Rvb= 256 ug/ml)
T1 sequence (whole entry): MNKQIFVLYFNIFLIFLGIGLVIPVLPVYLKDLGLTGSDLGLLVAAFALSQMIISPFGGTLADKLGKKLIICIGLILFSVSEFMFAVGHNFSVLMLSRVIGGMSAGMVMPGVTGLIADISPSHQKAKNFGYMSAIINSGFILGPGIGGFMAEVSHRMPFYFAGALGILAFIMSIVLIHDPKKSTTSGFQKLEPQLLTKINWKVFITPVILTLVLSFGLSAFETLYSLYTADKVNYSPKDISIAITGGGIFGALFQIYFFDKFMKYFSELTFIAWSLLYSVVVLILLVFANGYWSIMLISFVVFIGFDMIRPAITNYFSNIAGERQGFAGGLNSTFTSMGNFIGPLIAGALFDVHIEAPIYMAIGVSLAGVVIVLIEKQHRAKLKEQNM

[14] = target: T1, Quinolone resistance protein NorA (Staphylococcus aureus); assay: Inhibition of NorA efflux pump in Staphylococcus aureus 1199B overexpressing NorA efflux pump assessed as EtBr MIC at 1/8 times of MIC using EtBr as substrate incubated for 24 hrs by resazurin based assay (Rvb= 256 ug/ml)
[15] = target: T1, Quinolone resistance protein NorA (Staphylococcus aureus); assay: Inhibition of NorA efflux pump in Staphylococcus aureus 1199 assessed as norfloxacin MIC at 1/8 times of MIC using norfloxacin as substrate incubated for 24 hrs by resazurin based assay (Rvb= 32 ug/ml)
[16] = target: T1, Quinolone resistance protein NorA (Staphylococcus aureus); assay: Inhibition of NorA efflux pump in Staphylococcus aureus 1199B overexpressing NorA efflux pump assessed as norfloxacin MIC at 1/8 times of MIC using norfloxacin as substrate incubated for 24 hrs by resazurin based assay (Rvb= 406.37 ug/ml)
Staphylococcus aureus [17] = assay: Antibacterial activity against wild type Staphylococcus aureus 1199 assessed as bacterial growth inhibition incubated for 24 hrs by resazurin based microdilution assay; format: functional
Staphylococcus aureus [18] = assay: Antibacterial activity against Staphylococcus aureus RN4220 assessed as bacterial growth inhibition incubated for 18 hrs by MTT assay; format: functional
Staphylococcus aureus [19] = assay: Antibacterial activity against tetracycline-resistant Staphylococcus aureus XU212 assessed as bacterial growth inhibition incubated for 18 hrs by MTT assay; format: functional
Staphylococcus aureus [20] = assay: Antibacterial activity against Staphylococcus aureus EMRSA-15 assessed as bacterial growth inhibition incubated for 18 hrs by MTT assay; format: functional
Staphylococcus aureus [21] = assay: Antibacterial activity against Staphylococcus aureus ATCC25923 assessed as bacterial growth inhibition incubated for 18 hrs by MTT assay; format: functional
Staphylococcus aureus [22] = assay: Antibacterial activity against Staphylococcus aureus 1199B overexpressing NorA assessed as bacterial growth inhibition incubated for 18 hrs by MTT assay; format: functional
[23] = target: T1, Quinolone resistance protein NorA (Staphylococcus aureus); assay: Modulation of norfloxacin-induced inhibition of NorA efflux pump in Staphylococcus aureus 1199B overexpressing NorA efflux pump assessed as reduction in norfloxacin MIC at 1/4 times of MIC by resazurin based assay
[24] = target: T1, Quinolone resistance protein NorA (Staphylococcus aureus); assay: Modulation of EtBr -induced inhibition of NorA efflux pump in Staphylococcus aureus 1199B overexpressing NorA efflux pump assessed as reduction in EtBr MIC at 1/4 times of MIC using EtBr as substrate by resazurin based assay

Work on `C/C=C/c1ccc(O)c(OC)c1` yielded an MIC (Staphylococcus aureus [1]) of 40.3 µg/mL (≈ 245 µM) and an MIC (Staphylococcus aureus [2]) of 32 µg/mL (≈ 195 µM).

Work on `COc1ccc(/C=C/C(=O)c2ccc(O)cc2)cc1OC` yielded an MIC (Staphylococcus aureus [3]) of 100 µg/mL (≈ 352 µM), an MIC (Staphylococcus aureus [4]) of 100 µg/mL (≈ 352 µM) and an MIC (Staphylococcus aureus [5]) of 100 µg/mL (≈ 352 µM). For the same molecule, the MIC (Staphylococcus aureus [6]) was 100 µg/mL (≈ 352 µM), the MIC (Staphylococcus aureus [7]) was 100 µg/mL (≈ 352 µM) and the MIC (Staphylococcus aureus [8]) was 100 µg/mL (≈ 352 µM). The MIC (Staphylococcus aureus [9]) was 100 µg/mL (≈ 352 µM).

With `COc1ccc(/C=C/C(=O)c2ccccc2)cc1OC` the MIC (Staphylococcus aureus [3]) was 100 µg/mL (≈ 373 µM), the MIC (Staphylococcus aureus [4]) was 100 µg/mL (≈ 373 µM) and the MIC (Staphylococcus aureus [5]) was 100 µg/mL (≈ 373 µM). It also gave an MIC (Staphylococcus aureus [6]) of 100 µg/mL (≈ 373 µM), an MIC (Staphylococcus aureus [7]) of 100 µg/mL (≈ 373 µM) and an MIC (Staphylococcus aureus [8]) of 100 µg/mL (≈ 373 µM). It also gave an MIC (Staphylococcus aureus [9]) of 100 µg/mL (≈ 373 µM).

For `O=C(OC[C@]1(O)[C@H](OC(=O)c2ccccc2)C=C[C@@H](OC(=O)c2ccccc2)[C@@H]1O)c1ccccc1`, the “fractional inhibitory concentration index (FICI)” value (Staphylococcus aureus [10]) was 0.52 and the MIC (Staphylococcus aureus [11]) was 32 µg/mL.

`CC(C)=CCC1=C(NCCO)C(=O)c2ccccc2C1=O` was tested, and the MIC (Staphylococcus aureus [12]) was at least 1020 µg/mL, the MIC [13] was 16 µg/mL and the MIC [14] was 32 µg/mL. The MIC [15] was 1 µg/mL, the MIC [16] was 80 µg/mL and the MIC (Staphylococcus aureus [17]) was at least 1020 µg/mL.

With `CC(C)=CCC1=C(NCCCO)C(=O)c2ccccc2C1=O` the MIC (Staphylococcus aureus [12]) was at least 1020 µg/mL, the MIC [13] was 32 µg/mL and the MIC [14] was 64 µg/mL. The MIC [15] was 4 µg/mL, the MIC [16] was 102 µg/mL and the MIC (Staphylococcus aureus [17]) was at least 1020 µg/mL.

In the case of `COC(=O)c1cc(/C=C/C(=O)c2cccc(O)c2)ccc1OC`, the MIC (Staphylococcus aureus [3]) is reported as 100 µg/mL (≈ 320 µM), the MIC (Staphylococcus aureus [4]) is reported as 100 µg/mL (≈ 320 µM) and the MIC (Staphylococcus aureus [5]) is reported as 100 µg/mL (≈ 320 µM). For the same molecule, the MIC (Staphylococcus aureus [6]) was 100 µg/mL (≈ 320 µM), the MIC (Staphylococcus aureus [7]) was 100 µg/mL (≈ 320 µM) and the MIC (Staphylococcus aureus [8]) was 100 µg/mL (≈ 320 µM). It also gave an MIC (Staphylococcus aureus [9]) of 100 µg/mL (≈ 320 µM).

`CC(C)=CC1=C(NCCO)C(=O)c2ccccc2C1=O` showed an MIC (Staphylococcus aureus [12]) of at least 1020 µg/mL, an MIC [13] of 32 µg/mL and an MIC [14] of 128 µg/mL. For the same molecule, the MIC [15] was 2.51 µg/mL, the MIC [16] was 50.8 µg/mL and the MIC (Staphylococcus aureus [17]) was at least 1020 µg/mL.

For `COc1ccc(-c2cc(=O)c3ccc(O)cc3o2)cc1O`, the MIC (Staphylococcus aureus [18]) was 32 µg/mL (≈ 113 µM), the MIC (Staphylococcus aureus [19]) was 32 µg/mL (≈ 113 µM) and the MIC (Staphylococcus aureus [20]) was 32 µg/mL (≈ 113 µM). It also gave an MIC (Staphylococcus aureus [21]) of 32 µg/mL (≈ 113 µM) and an MIC (Staphylococcus aureus [22]) of 32 µg/mL (≈ 113 µM).

For `C/C=C/c1cc(OC)c2c(c1)[C@H](C)[C@@H](c1ccc(OC)c(OC)c1)O2`, the “fractional inhibitory concentration index (FICI)” value (Staphylococcus aureus [10]) was 0.13 and the MIC (Staphylococcus aureus [11]) was 8 µg/mL.

In the case of `C=CC[C@]12C=C(OC)C(=O)[C@H]([C@@H](c3ccc4c(c3)OCO4)[C@@H]1C)[C@@H]2OC(C)=O`, the “fractional inhibitory concentration index (FICI)” value (Staphylococcus aureus [10]) is reported as 0.25 and the MIC (Staphylococcus aureus [11]) is reported as 16 µg/mL.

Work on `COc1ccc(-c2cc(=O)c3c(O)cc(O[C@@H]4O[C@H](CO[C@@H]5O[C@@H](C)[C@H](O)[C@@H](O)[C@H]5O)[C@@H](O)[C@H](O)[C@H]4O)cc3o2)cc1O` yielded an MIC [23] of 32 µg/mL.

Molecule `COc1ccc([C@@H]2CC(=O)c3c(O)cc(O)cc3O2)cc1O` has an MIC [24] of 16 µg/mL and an MIC [23] of 8 µg/mL.

`C[C@@H]1O[C@@H](Oc2c(-c3cc(O)c(O)c(O)c3)oc3cc(O)cc(O)c3c2=O)[C@H](O)[C@H](O)[C@H]1O` was tested, and the MIC [23] was 32 µg/mL.

`C[C@@H]1O[C@@H](Oc2c(-c3ccc(O)c(O)c3)oc3cc(O)cc(O)c3c2=O)[C@H](O)[C@H](O)[C@H]1O` gave an MIC [23] of 64 µg/mL.

Molecule `O=C(CCc1ccc(O)cc1)c1c(O)cc(O)cc1O` has an MIC [24] of 8 µg/mL and an MIC [23] of 32 µg/mL.
